# The NIST ThermoML archive (doi:10.1016/j.jct.2010.09.005)
# Values joined by “and” are separate entries in the source; they are usually repeats but may differ in a detail not shown here. Identical values can stand only once. Numbers after ± are expanded uncertainties.
# Legend:
# [1] = molar enthalpy of vaporization or sublimation; settings: 298.15 K, vacuum sublimation
# [2] = Crystal, Calculated from knudsen effusion weight loss
SMILES,molar enthalpy ([1]; Crystal),molar enthalpy ([1]; Liquid),vapor or sublimation pressure ([2]; 293.25 K),vapor or sublimation pressure ([2]; 295.17 K),vapor or sublimation pressure ([2]; 297.09 K),vapor or sublimation pressure ([2]; 299.21 K),vapor or sublimation pressure ([2]; 301.16 K),vapor or sublimation pressure ([2]; 303.08 K),vapor or sublimation pressure ([2]; 305.19 K),vapor or sublimation pressure ([2]; 307.16 K),vapor or sublimation pressure ([2]; 309.09 K)
"CC(=O)c1ccc(Cl)cc1Cl [2',4'-dichloroacetophenone]",15.2 ± 0.669 kcal/mol,–,–,–,–,–,–,–,–,–,–
"CC(=O)c1cc(Cl)ccc1Cl [2',5'-dichloroacetophenone]",–,15.8 ± 0.717 kcal/mol,–,–,–,–,–,–,–,–,–
"CC(=O)c1ccc(Cl)c(Cl)c1 [3',4'-dichloroacetophenone]",21.7 ± 0.765 kcal/mol,–,0.0001703 ± 8.5e-06 kPa and 0.0001647 ± 8.3e-06 kPa and 0.0001655 ± 8.3e-06 kPa,0.0002238 ± 1.1e-05 kPa and 0.0002145 ± 1.1e-05 kPa and 0.000213 ± 1.1e-05 kPa,0.0002738 ± 1.4e-05 kPa and 0.0002832 ± 1.4e-05 kPa and 0.0002774 ± 1.4e-05 kPa,0.0003484 ± 1.7e-05 kPa and 0.0003522 ± 1.8e-05 kPa and 0.0003546 ± 1.8e-05 kPa,0.0004547 ± 2.3e-05 kPa and 0.0004516 ± 2.3e-05 kPa and 0.0004492 ± 2.3e-05 kPa,0.0005694 ± 2.9e-05 kPa and 0.0005819 ± 2.9e-05 kPa and 0.0005785 ± 2.9e-05 kPa,0.0007368 ± 3.7e-05 kPa and 0.0007202 ± 3.6e-05 kPa and 0.0007224 ± 3.6e-05 kPa,0.000944 ± 4.7e-05 kPa and 0.0009302 ± 4.7e-05 kPa and 0.0009113 ± 4.6e-05 kPa,0.001174 ± 0.00012 kPa and 0.001186 ± 0.00012 kPa and 0.001176 ± 0.00012 kPa
